Data taken from US20230356105A1, “TETRAAZADODECANE BASED CHELATING AGENTS FOR SEPARATION OF RARE EARTH ELEMENTS AND METHOD THEREFOR” (Ustav Organicke Chemie a Biochemie AV CR V.V.I., priority 2020, published 2023).
Several values for one entry are separate records, joined by “and”; a condition that tells them apart may be missing. Equal values may be shown once. Marks after values point to notes of the source that are not given here.

Tests used:
Assay type in all cases: physicochemical
[1] = Separation of Nd/Pr/Tb/Dy mixture by precipitation using L5 and acetate (Example 22); details: for solution after 20 hrs / solution after 2 days: acetate buffer pH=5.8; for solution after 20 hrs composition / solution after 2 days composition: percent molar
Protocol: A reaction mixture was prepared analogously to Example 21), with the differences being the use of sodium acetate buffer pH=5.8 in place of MOPS pH=7, an additional aliquot taken for analysis after 2 days, and the lack of ICP-OES analysis on the precipitated portions of the solution — that is, only the supernatants were analysed. Otherwise, the reaction was run analogously to Example 21). The percent molar composition of each is also provided, showing the improved selectivity in precipitation under these conditions, compared to Example 21).

[2] = Separation of Eu/Yb mixture by precipitation from water/acetonitrile solutions using L5 (Example 17); details: for Precipitate concentration [mM] Eu / Precipitate concentration [mM] Yb: dissolved to 100 μL
Protocol: 3 reaction mixtures, differing in acetonitrile content (group A=10%, group B=20%, group C=50%) were prepared in plastic round-bottom 2 mL Eppendorf tubes, each in duplicate. For group A, the stock solutions were pipetted as follows: 5 μL 100 mM aqueous solution of EuCl3; 5 μL 100 mM aqueous solution YbC13; 10 μL 100 mM aqueous solution of compound L5; 20 μL 3 M MOPS buffer pH=7; 50 μL water; 10 μL acetonitrile.
For group B, the stock solutions were pipetted as follows: 5 μL 100 mM aqueous solution of EuCl3; 5 μL 100 mM aqueous solution YbC13; 10 μL 100 mM aqueous solution of compound L5; 20 μL 3 M MOPS buffer pH=7; 40 μL water; 20 μL acetonitrile. For group C, the stock solutions were pipetted as follows: 5 μL 100 mM aqueous solution of EuCl3; 5 μL 100 mM aqueous solution YbC13; 10 μL 100 mM aqueous solution of compound L5; 20 μL 3 M MOPS buffer pH=7; 10 μL water; 50 μL acetonitrile.
Each tube was equipped with one PTFE-coated magnetic stir bar and sealed, and the mixture was stirred on a magnetic stirrer for 24 hours at room temperature. The tubes were then centrifuged and the supernatants were carefully pipetted out and transferred to a new set of tubes. To the precipitate was added 100 μL 1 M HCl and mixture was stirred until full dissolution (overnight at room temperature, pH=0). Concentrations of Eu and Yb in the supernatants and in the re-dissolved precipitates were determined by ICP-OES. The resulting absolute concentrations of both metals in the supernatants and precipitates, as well as calculated values of the separation factor Yb/Eu according to the formula from Example 11), are summarized in Table 11.

[3] = Separation of Eu/Yb mixture by precipitation using L5 (Example 15); details: for Precipitate concentration [mM] Eu / Precipitate concentration [mM] Yb: dissolved to 150 μL
Protocol: Stock solutions were pipetted into round-bottom 2 mL Eppendorf tubes as follows: • 1. 15 μL 100 mM aqueous solution of EuCl3 • 2. 10 μL 100 mM aqueous solution of YbCl3 • 3. 30 μL 100 mM aqueous solution of compound L5. • 4. 90 μL 0.5 M MOPS buffer pH=7.
Three identical reaction mixtures were prepared. Each tube was equipped with one PTFE-coated magnetic stir bar and sealed, and the mixture was stirred on a magnetic stirrer for 24 hours at room temperature. The tubes were then centrifuged and the supernatants were carefully pipetted out and transferred to a new set of tubes. To the precipitate was added 100 μL 1 M HCl (reaching pH=0) and the mixture was stirred until full dissolution (overnight at room temperature, pH=0). The overall volume of the solution was adjusted to 150 μL volume by addition of water. The supernatants were treated with 1 M HCl for a total volume of 150 μL and pH=0.5. Concentrations of Eu and Yb in the supernatants and in the re-dissolved precipitates were determined by ICP-OES. The resulting absolute concentrations of both metals in the supernatants and precipitates, as well as calculated values of the separation factor Yb/Eu according to formula from Example 11), are summarized in Table 9. […] The average separation factor value was 152.

[4] = Removal of additive from remaining solution after precipitation by ultrafiltration (Example 25); details: Ln chelates of L5
[5] = group A, 10% acetonitrile, mean of duplicates
[6] = group B, 20% acetonitrile, mean of duplicates
[7] = group C, 50% acetonitrile, mean of duplicates

Structure (SMILES): O=C(O)CN1CCN(CC(=O)O)CCN(Cc2cccc3ccccc23)CCN(CC(=O)O)CC1 [L5, 2,2′,2″-(10-(naphthalene-1-ylmethyl)-1,4,7,10-tetraazacyklododekane-1,4,7-triyl)triacetic acid]
- solution after 20 hrs ([1]; Ln=Dy): 5.41 mM
- solution after 2 days ([1]; Ln=Dy): 5.00 mM
- solution after 20 hrs composition ([1]; Ln=Dy): 16.4%
- solution after 2 days composition ([1]; Ln=Dy): 28.1%
- solution after 20 hrs ([1]; Ln=Nd): 17.01 mM
- solution after 2 days ([1]; Ln=Nd): 6.42 mM
- solution after 20 hrs composition ([1]; Ln=Nd): 51.5%
- solution after 2 days composition ([1]; Ln=Nd): 36.1%
- solution after 20 hrs ([1]; Ln=Pr): 4.78 mM
- solution after 2 days ([1]; Ln=Pr): 1.57 mM
- solution after 20 hrs composition ([1]; Ln=Pr): 14.5%
- solution after 2 days composition ([1]; Ln=Pr): 8.8%
- solution after 20 hrs ([1]; Ln=Tb): 5.84 mM
- solution after 2 days ([1]; Ln=Tb): 4.77 mM
- solution after 20 hrs composition ([1]; Ln=Tb): 17.7%
- solution after 2 days composition ([1]; Ln=Tb): 26.9%
- Supernatant concentration [mM] Eu ([2]; group A, 10% acetonitrile): 0.58 mM and 0.35 mM
- Supernatant concentration [mM] Yb ([2]; group A, 10% acetonitrile): 4.55 mM and 4.42 mM
- Precipitate concentration [mM] Eu ([2]; group A, 10% acetonitrile): 2.78 mM and 2.98 mM
- Precipitate concentration [mM] Yb ([2]; group A, 10% acetonitrile): 0.29 mM and 0.36 mM
- Precipitate concentration [mM] Eu [2, 5]: 2.88 mM
- Precipitate concentration [mM] Yb [2, 5]: 0.32 mM
- Supernatant concentration [mM] Eu [2, 5]: 0.47 mM
- Supernatant concentration [mM] Yb [2, 5]: 4.48 mM
- Supernatant concentration [mM] Eu ([2]; group B, 20% acetonitrile): 0.45 mM and 0.63 mM
- Supernatant concentration [mM] Yb ([2]; group B, 20% acetonitrile): 3.99 mM and 4.71 mM
- Precipitate concentration [mM] Eu ([2]; group B, 20% acetonitrile): 3.16 mM and 2.95 mM
- Precipitate concentration [mM] Yb ([2]; group B, 20% acetonitrile): 0.38 mM and 0.41 mM
- Precipitate concentration [mM] Eu [2, 6]: 3.06 mM
- Precipitate concentration [mM] Yb [2, 6]: 0.40 mM
- Supernatant concentration [mM] Eu [2, 6]: 0.54 mM
- Supernatant concentration [mM] Yb [2, 6]: 4.35 mM
- Supernatant concentration [mM] Eu ([2]; group C, 50% acetonitrile): 1.51** mM and 0.79** mM
- Supernatant concentration [mM] Yb ([2]; group C, 50% acetonitrile): 6.29** mM and 5.77** mM
- Precipitate concentration [mM] Eu ([2]; group C, 50% acetonitrile): 3.22 mM and 3.90 mM
- Precipitate concentration [mM] Yb ([2]; group C, 50% acetonitrile): 0.42 mM and 0.37 mM
- Precipitate concentration [mM] Eu [2, 7]: 3.56 mM
- Precipitate concentration [mM] Yb [2, 7]: 0.39 mM
- Supernatant concentration [mM] Eu [2, 7]: 1.15 mM
- Supernatant concentration [mM] Yb [2, 7]: 6.03 mM
- Supernatant concentration [mM] Eu [3]: 0.16 mM and 0.22 mM
- Supernatant concentration [mM] Yb [3]: 3.69 mM and 3.85 mM and 3.97 mM
- Precipitate concentration [mM] Eu [3]: 4.66 mM and 4.57 mM and 4.50 mM
- Precipitate concentration [mM] Yb [3]: 0.63 mM and 0.62 mM and 0.58 mM
- Precipitate concentration [mM] Eu ([3]; mean): 4.58 mM
- Precipitate concentration [mM] Yb ([3]; mean): 0.61 mM
- Supernatant concentration [mM] Eu ([3]; mean): 0.19 mM
- Supernatant concentration [mM] Yb ([3]; mean): 3.84 mM
- % of initial [chelate] in filtrate ([4]; additive acetate 76 mM): 0.8%
- % of initial [chelate] in filtrate ([4]; additive benzoic acid 76 mM): 0.3%
- % of initial [chelate] in filtrate ([4]; additive α-HIBA 30.4 mM): 0.4%
